Data on 30 molecules can be found in article PMC9959258, “Discovery of Polyphenolic Natural Products as SARS-CoV-2 M^pro Inhibitors for COVID-19” (Pharmaceuticals, 2023).

Entries after “also recorded” stand apart in the source; their conditions may differ. Where two headings read alike, the source gives them in different places.

The target of one data set is SARS-CoV-2 M^pro (Severe acute respiratory syndrome coronavirus 2, UniProt P0DTD1). Nature of the data set: biochemical. Type of data set: biochemical. The following applies: for inhibition at 10 µM: read-out: SARS-CoV-2 M^pro % Inhibition at 10 μM; for M^pro inhibition, result in words: tested at 10 µM.
Data set [1] has as its target T1, malate dehydrogenase (MDH) (Sus scrofa, UniProt P00346).
T1 sequence (P00346 25-338): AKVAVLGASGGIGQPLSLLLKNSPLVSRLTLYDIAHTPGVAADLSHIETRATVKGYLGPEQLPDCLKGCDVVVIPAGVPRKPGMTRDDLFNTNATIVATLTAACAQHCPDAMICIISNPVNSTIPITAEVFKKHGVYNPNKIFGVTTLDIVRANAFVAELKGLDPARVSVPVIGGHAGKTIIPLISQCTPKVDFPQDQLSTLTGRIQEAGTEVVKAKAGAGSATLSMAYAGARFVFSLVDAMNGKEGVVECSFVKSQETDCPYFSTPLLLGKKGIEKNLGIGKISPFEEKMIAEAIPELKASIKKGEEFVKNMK
Type of data set: biochemical. The following applies: 31.6 µM, with or without 0.01% (v/v) Triton X-100.

Data set [2] can be described thus: Dynamic light scattering (DLS) for colloidal particle formation. Type of data set: physicochemical. The following applies: 31.6 µM, 50 mM KPi pH 7.0, 1% DMSO.
For data set [3], the system named is SARS-CoV-2 isolate NK, Pango lineage B.1.513. Put plainly: microbe, parasite or virus in culture. As to conditions: for inhibition of viral titers: 10 µM; for EC50: read-out: EC50 antiviral activity; for inhibition at 10 µM: Severe acute respiratory syndrome coronavirus 2, Calu-3, 24 h, read-out: inhibition of viral titers. Type of data set: cell-based.
For a further data set, the system named is HIV-1 protease. The following applies: background statement, no reference given; cited from earlier work.
In the next data set the test system is nitric oxide synthesis. The following applies: background statement, no reference given; read-out: IC50 for reduction of nitric oxide synthesis; cited from earlier work.
In data set [4] the test system is prostaglandin E2 (PGE2) synthesis. The following applies: background statement, no reference given; read-out: IC50 for reduction of prostaglandin E2 synthesis; cited from earlier work.
The subject of the next data set is fatty acid synthase. As to conditions: background statement, no reference given; cited from earlier work.
The mark [5] stands for this setting: FRET assay, 50 nM M^pro, 10 min preincubation.
Setting [6] is: compound at 10 μM, FRET assay, 50 nM M^pro.
Where [7] appears, read: Severe acute respiratory syndrome coronavirus 2, 24 h.

On SARS-CoV-2 M^pro (setting [5]), `C=C(C)C1CCC2=CC(=O)CC(C)C2(C)C1` (single isomer, unassigned; (+)) [(+)-Nootkaton] had an IC50 of more than 10 µM. Besides, at SARS-CoV-2 M^pro (setting [6]), the inhibition at 10 µM was 32%.

`C=C1C(=O)OC2C1CCC(C)=CCCC1(C)OC21` (single isomer, unassigned; (-)) [(−)-Parthenolide] came in with an IC50 at SARS-CoV-2 M^pro (setting [5]) of more than 10 µM. The inhibition at 10 µM on SARS-CoV-2 M^pro (setting [6]) was found to be 20.1%.

With `CCOC1=C(O)C(=O)O[C@@H]1[C@@H](O)CO` [3-O-Ethyl-L-ascorbic acid], the IC50 on SARS-CoV-2 M^pro was more than 10 µM. Also, the inhibition at 10 µM on SARS-CoV-2 M^pro (setting [6]) came out at 24.9%.

Take `CC1=C2C3OC(=O)C(C)C3CCC2(C)C=CC1=O` (stereo not drawn) [(−)-α-Santonin]: the IC50 on SARS-CoV-2 M^pro (setting [5]) was more than 10 µM. The inhibition at 10 µM at SARS-CoV-2 M^pro (setting [6]) turned out to be 24.1%.

On to `C=C1C(=O)OC2CC3(C)CCCC(C)C3=CC12` (stereo not shown) [Alantolacton], for which, on SARS-CoV-2 M^pro (setting [5]), the IC50 was more than 10 µM. Besides, at SARS-CoV-2 M^pro (setting [6]), the inhibition at 10 µM came out at 27.6%.

As for `C=C1C(=O)O[C@@H]2/C=C(\C)CC/C=C(\C)CC[C@@H]12` [Costunolide], on SARS-CoV-2 M^pro (setting [5]), the IC50 was more than 10 µM. In addition, the inhibition at 10 µM on SARS-CoV-2 M^pro (setting [6]) was determined as 28%.

On to `C=C1CC[C@H]2C(=C)CC[C@H]3C(=C)C(=O)O[C@@H]3[C@@H]12` [Dehydrocostus lactone], for which the IC50 against SARS-CoV-2 M^pro (setting [5]) is more than 10 µM. Further, the inhibition at 10 µM at SARS-CoV-2 M^pro (setting [6]) was found to be 13.4%.

Take `O=c1c(O)c(-c2ccc(O)c(O)c2)oc2cc(O)ccc12` [Fisetin]: on SARS-CoV-2 M^pro (setting [5]), the IC50 was more than 10 µM. Besides, on SARS-CoV-2 M^pro (setting [6]), the “SARS-CoV-2 M^pro % Inhibition at 10 μM” value was −11.21%.

`CC(C)=CCC[C@]1(C)C=Cc2c(O)c3c(c(CC=C(C)C)c2O1)O[C@]12C(=C[C@@H]4C[C@H]1C(C)(C)O[C@@]2(C/C=C(/C)C(=O)O)C4=O)C3=O` [Gambogic acid]: the IC50 on SARS-CoV-2 M^pro (setting [5]) was more than 10 µM. Further, the inhibition at 10 µM at SARS-CoV-2 M^pro (setting [6]) came out at 22.8%.

`O=C1O[C@H]([C@@H](O)CO)C(O)=C1O` [L-Ascorbic acid] returned an IC50 against SARS-CoV-2 M^pro (setting [5]) of more than 10 µM. Further, the inhibition at 10 µM at SARS-CoV-2 M^pro (setting [6]) was found to be 22.2%.

For `O=C(OC1Cc2c(O)cc(O)cc2OC1c1cc(O)c(O)c(O)c1)c1cc(O)c(O)c(O)c1` [L-Epigallocatechin gallate], the “MDH inhibition with 0.01% Triton X-100 (detergent reversibility)” value in data set [1] is “reversed in the presence of detergent”. Moreover, the “colloidal-like particle formation by DLS” value in data set [2] (listed as ECGC) is listed as “do not form colloidal-like particles”. Besides, the “colloidal-like particle formation by DLS” value in data set [2] (listed as EGCG) is reported as “neither of these compounds produced colloidal-like particles”. Moreover, in data set [3], the “inhibition of viral titers” value is recorded as 81.4% and the EC50 came to 0.115 µM. The inhibition at 10 µM at SARS-CoV-2 M^pro (setting [6]) is 105%. Besides, the “M^pro inhibition, result in words” value at SARS-CoV-2 M^pro is reported as “completely inhibit the SARS-CoV-2 M^pro activity”.

Molecule `COC(=O)C1=CO[C@@H](O[C@@H]2O[C@H](CO)[C@@H](O)[C@H](O)[C@H]2O)[C@@H]2[C@@H](C)[C@@H](O)C[C@H]12` [Loganin] gave an IC50 at SARS-CoV-2 M^pro of more than 10 µM. For the same molecule, the inhibition at 10 µM at SARS-CoV-2 M^pro (setting [6]) is 29.4%.

For the molecule `O=c1cc(-c2ccc(O)c(O)c2)oc2cc(O)cc(O)c12` [Luteoline], the IC50 on SARS-CoV-2 M^pro (setting [5]) is more than 10 µM. Besides, at SARS-CoV-2 M^pro (setting [6]), the inhibition at 10 µM is 9.65%. For the same molecule, the “M^pro inhibition, result in words” value on SARS-CoV-2 M^pro was “unable to inhibit M^pro”.

With `CC(C)C(=O)OC[C@H]1O[C@@H](n2ccc(NO)nc2=O)[C@H](O)[C@@H]1O` [Molnupiravir, reference compound], in data set [3] (setting [7]), the EC50 turned out to be 0.00545 µM.

Regarding `C=C1C(=O)[C@]23[C@H](O)[C@H]1CC[C@H]2[C@@]12CO[C@]3(O)[C@@H](O)[C@@H]1C(C)(C)CC[C@@H]2O` [Oridonin], in data set [3] (setting [7]), the EC50 worked out at 0.0128 µM. Also, the figures for the inhibition at 10 µM (in data set [3]; at SARS-CoV-2 M^pro (setting [6])) were 89% and 81.9%, respectively.

On SARS-CoV-2 M^pro (setting [5]), `CCCCCCCCCCC[C@@H](C[C@@H]1OC(=O)[C@H]1CCCCCC)OC(=O)[C@H](CC(C)C)NC=O` [Orlistat, reference compound] yielded an IC50 of more than 10 µM. Further, the inhibition at 10 µM at SARS-CoV-2 M^pro (setting [6]) was found to be 21%.

In turn, `COc1ccc2ccc(=O)oc2c1CC=C(C)C` [Osthole] showed an IC50 against SARS-CoV-2 M^pro (setting [5]) of more than 10 µM. Also, on SARS-CoV-2 M^pro (setting [6]), the inhibition at 10 µM was 4.98%.

Take `Oc1cc(O)cc(/C=C/c2ccc(O)c(O)c2)c1` [Piceatannol]: the EC50 in data set [3] (setting [7]) is 0.00342 µM. Besides, the inhibition at 10 µM in data set [3] was 81%; on SARS-CoV-2 M^pro (setting [6]), 76.9%. The IC50 on SARS-CoV-2 M^pro (setting [5]) was 2.03 µM.

Consider `C[C@@H]1O[C@@H](Oc2c(-c3ccc(O)c(O)c3)oc3cc(O)cc(O)c3c2=O)[C@H](O)[C@H](O)[C@H]1O` [Quercitrin], for which, at SARS-CoV-2 M^pro (setting [5]), the IC50 was more than 10 µM. Besides, at SARS-CoV-2 M^pro (setting [6]), the inhibition at 10 µM came out at 2.42%. Further, on SARS-CoV-2 M^pro, the “M^pro inhibition, result in words” value is given as “unable to inhibit the M^pro enzyme”.

In the case of `C[C@]12CC[C@H](O)C[C@H]1CC[C@@H]1[C@@H]2CC[C@]2(C)[C@@H](c3ccc(=O)oc3)C[C@H]3O[C@]132` [Resibufogenin], on SARS-CoV-2 M^pro, the half-maximal inhibitory concentration (IC50) is more than 10 µM and the inhibition at 10 µM came to 6.32%.

As for `Oc1ccc(/C=C/c2cc(O)cc(O)c2)cc1` [Resveratrol], the IC50 against SARS-CoV-2 M^pro (setting [5]) is more than 10 µM. On SARS-CoV-2 M^pro (setting [6]), the inhibition at 10 µM worked out at 5.96%. Besides, the “M^pro inhibition, result in words” value at SARS-CoV-2 M^pro was “unable to inhibit the enzyme”.

Turning to `O=c1c(O)c(-c2cc(O)c(O)c(O)c2)oc2cc(O)ccc12` [Robinetin], the “MDH inhibition with 0.01% Triton X-100 (detergent reversibility)” value in data set [1] is “reversed in the presence of detergent”. Moreover, the “colloidal-like particle formation by DLS” value in data set [2] is given as “neither of these compounds produced colloidal-like particles; also recorded: do not form colloidal-like particles”. In addition, in data set [3], the “inhibition of viral titers” value is 89.6% and the EC50 was found to be 0.0013 µM. On SARS-CoV-2 M^pro (setting [5]), this molecule displayed an IC50 of 0.96 µM. In addition, the inhibition at 10 µM at SARS-CoV-2 M^pro (setting [6]) came to 86.1%.

In the case of `O=C(/C=C/c1ccc(O)c(O)c1)O[C@H](Cc1ccc(O)c(O)c1)C(=O)O` [Rosmarinic acid], the EC50 in data set [3] (setting [7]) came out at 0.0167 µM. For the same molecule, the inhibition at 10 µM amounted to 81% in data set [3] and 50.6% at SARS-CoV-2 M^pro (setting [6]). On SARS-CoV-2 M^pro (setting [5]), this molecule showed an IC50 of 6.84 µM.

For the molecule `O=C(/C=C/c1ccc(O)c(O)c1/C=C/c1ccc(O)c(O)c1)O[C@H](Cc1ccc(O)c(O)c1)C(=O)O` [Salvianolic acid A], on SARS-CoV-2 M^pro (setting [6]), the inhibition at 10 µM is 50.8%.

Consider `O=c1cc(-c2ccc(O)cc2)oc2cc(O)c(O)c(O)c12` [Scutellarein], for which the EC50 in data set [3] (setting [7]) worked out at 0.00257 µM. The inhibition at 10 µM is 87% in data set [3] and 76.1% at SARS-CoV-2 M^pro (setting [6]).

For the molecule `COC1=C[C@@H]2[C@@H]3Cc4ccc(OC)c(O)c4[C@]2(CCN3C)CC1=O` [Sinomenine], on SARS-CoV-2 M^pro, the IC50 is more than 10 µM and the inhibition at 10 µM was found to be 4.8%.

In the case of `Cc1coc2c1C(=O)C(=O)c1c-2ccc2c(C)cccc12` [Tanshinone I], the inhibition at 10 µM on SARS-CoV-2 M^pro (setting [6]) was 7.03%.

As to `O=c1cc(-c2cc(O)c(O)c(O)c2)oc2cc(O)cc(O)c12` [Tricetin], half-maximal inhibition against SARS-CoV-2 M^pro (setting [5]) (IC50) was put at 7.84 µM. Further, the inhibition at 10 µM on SARS-CoV-2 M^pro (setting [6]) turned out to be 72.3%.

For `COc1c(O)cc2oc3cc(O)c(CC=C(C)C)c(O)c3c(=O)c2c1CC=C(C)C` [α-Mangostin], the IC50 was 5.12 µM in the data set with HIV-1 protease; 11.1 µM with nitric oxide synthesis; 12.4 µM in data set [4]; 5.54 µM in the data set on fatty acid synthase; 25.1 µM on SARS-CoV-2 M^pro (setting [5]).

Myricitrin: the “SARS-CoV-2 M^pro % Inhibition at 10 μM” value on SARS-CoV-2 M^pro (setting [6]) was 11.67%. The “M^pro inhibition, result in words” value on SARS-CoV-2 M^pro is given as “did not, however, inhibit M^pro”; on SARS-CoV-2 M^pro (listed as myricitrin), “did not inhibit M^pro”.

As a reminder, the IC50 is the concentration at which inhibition is half-maximal. As usually defined, the inhibition is the relative decrease from the control value, in per cent. As a reminder, the EC50 is the concentration at which the effect is half-maximal.
